Assay results reported in ChEMBL document CHEMBL5113425, “Preparation of a multifunctional photoactivated prodrug on a streptavidin scaffold bearing a DNA aptamer” (Bioorg Med Chem Lett, 2022).
Calls of active or inactive are those of the source. The rule behind the calls is not given here.

Assays:
SK-BR-3 [1] = test: Cytotoxicity in human SK-BR-3 cells assessed as reduction in cell viability at 50 to 500 nM incubated for 72 hrs in presence of 15 mins photoirradiation at 365 nm by WST assay; assay type: functional, cell-based; conditions: dose 50-500 nM
SK-BR-3 [2] = test: Cytotoxicity in human SK-BR-3 cells assessed as reduction in cell viability at 50 to 500 nM incubated for 72 hrs in absence of 15 mins photoirradiation at 365 nm by WST assay; assay type: toxicity, cell-based; conditions: sk-br-3, 72 h, 0.5 µM, dose 50-500 nM

CC[C@@]1(OC(=O)CCCCNC(=O)OC(C)c2cc(OC)c(OCCCC(=O)NCCN3C(=O)CC(NCCNC(=O)CCCC[C@@H]4SC[C@H]5NC(=O)N[C@@H]45)C3=O)cc2[N+](=O)[O-])C(=O)OCc2c1cc1n(c2=O)Cc2cc3ccccc3nc2-1 (some centres not stated)
Activity (SK-BR-3 [1]): Active
Activity (SK-BR-3 [2]): Non-Toxic
